Experimental data as given in ChEMBL document CHEMBL1156106 (J Med Chem, 2009).

Tests used:
[1] = system: Rattus norvegicus; assay: Effect on behavioural activity in rat assessed as cocaine-induced lever response at 200 mg/kg, po pretreated with cocaine for 180 mins by drug-discrimination studies; assay type: functional
[2] = system: Rattus norvegicus; assay: Effect on behavioural activity in rat assessed as cocaine-induced lever response at 50 mg/kg, po pretreated with cocaine for 360 mins by drug-discrimination studies; assay type: functional
[3] = molecular target: Sodium-dependent serotonin transporter (Homo sapiens, UniProt P31645); assay: biochemical; assay type: cell-based, HEK293
Sequence of Sodium-dependent serotonin transporter (P31645 whole entry): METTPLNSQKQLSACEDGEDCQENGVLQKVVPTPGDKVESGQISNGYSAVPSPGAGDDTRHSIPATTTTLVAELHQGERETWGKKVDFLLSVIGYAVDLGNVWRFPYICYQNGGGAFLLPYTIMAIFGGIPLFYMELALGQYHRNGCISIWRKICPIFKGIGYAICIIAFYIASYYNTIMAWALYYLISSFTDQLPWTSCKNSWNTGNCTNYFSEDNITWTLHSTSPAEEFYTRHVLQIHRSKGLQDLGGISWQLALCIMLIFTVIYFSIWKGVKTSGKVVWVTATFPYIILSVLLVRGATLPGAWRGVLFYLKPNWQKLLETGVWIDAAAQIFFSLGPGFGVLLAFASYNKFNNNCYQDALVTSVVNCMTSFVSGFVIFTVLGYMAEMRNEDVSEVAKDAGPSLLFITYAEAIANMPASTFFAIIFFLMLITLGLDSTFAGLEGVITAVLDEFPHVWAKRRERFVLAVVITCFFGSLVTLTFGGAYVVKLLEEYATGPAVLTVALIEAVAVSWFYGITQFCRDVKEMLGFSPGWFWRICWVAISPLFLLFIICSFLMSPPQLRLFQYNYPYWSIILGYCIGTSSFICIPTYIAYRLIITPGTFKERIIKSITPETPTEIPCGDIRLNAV

[4] = system: Rattus norvegicus; assay: Effect on behavioural activity in rat assessed as cocaine-induced lever response at 100 mg/kg, po pretreated with cocaine for 360 mins by drug-discrimination studies; assay type: functional
[5] = system: Rattus norvegicus; assay: Effect on behavioural activity in rat assessed as cocaine-induced lever response at 2.5 mg/kg, po pretreated with cocaine for 180 mins by drug-discrimination studies; assay type: functional
[6] = system: Rattus norvegicus; assay: Effect on behavioural activity in rat assessed as cocaine-induced lever response at 5 mg/kg, po pretreated with cocaine for 45 mins by drug-discrimination studies; assay type: functional
[7] = system: Rattus norvegicus; assay: Effect on behavioural activity in rat assessed as cocaine-induced lever response at 25 mg/kg, po pretreated with cocaine for 180 mins by drug-discrimination studies; assay type: functional
[8] = system: Rattus norvegicus; assay: Effect on behavioural activity in rat assessed as cocaine-induced lever response at 100 mg/kg, po pretreated with cocaine for 180 mins by drug-discrimination studies; assay type: functional
[9] = system: Rattus norvegicus; assay: Effect on behavioural activity in rat assessed as cocaine-induced lever response at 5 mg/kg, po pretreated with cocaine for 360 mins by drug-discrimination studies; assay type: functional
[10] = system: Rattus norvegicus; assay: Effect on behavioural activity in rat assessed as cocaine-induced lever response at 25 mg/kg, po pretreated with cocaine for 90 mins by drug-discrimination studies; assay type: functional
[11] = system: Rattus norvegicus; assay: Effect on behavioural activity in rat assessed as cocaine-induced lever response at 50 mg/kg, po pretreated with cocaine for 45 mins by drug-discrimination studies; assay type: functional
[12] = system: Rattus norvegicus; assay: Effect on behavioural activity in rat assessed as cocaine-induced lever response at 200 mg/kg, po pretreated with cocaine for 90 mins by drug-discrimination studies; assay type: functional
[13] = molecular target: Sodium-dependent noradrenaline transporter (Homo sapiens, UniProt P23975); assay: Displacement of [125I]RTI55 from cloned human NET expressed in HEK293 cells; assay type: cell-based
Sequence of Sodium-dependent noradrenaline transporter (P23975 whole entry): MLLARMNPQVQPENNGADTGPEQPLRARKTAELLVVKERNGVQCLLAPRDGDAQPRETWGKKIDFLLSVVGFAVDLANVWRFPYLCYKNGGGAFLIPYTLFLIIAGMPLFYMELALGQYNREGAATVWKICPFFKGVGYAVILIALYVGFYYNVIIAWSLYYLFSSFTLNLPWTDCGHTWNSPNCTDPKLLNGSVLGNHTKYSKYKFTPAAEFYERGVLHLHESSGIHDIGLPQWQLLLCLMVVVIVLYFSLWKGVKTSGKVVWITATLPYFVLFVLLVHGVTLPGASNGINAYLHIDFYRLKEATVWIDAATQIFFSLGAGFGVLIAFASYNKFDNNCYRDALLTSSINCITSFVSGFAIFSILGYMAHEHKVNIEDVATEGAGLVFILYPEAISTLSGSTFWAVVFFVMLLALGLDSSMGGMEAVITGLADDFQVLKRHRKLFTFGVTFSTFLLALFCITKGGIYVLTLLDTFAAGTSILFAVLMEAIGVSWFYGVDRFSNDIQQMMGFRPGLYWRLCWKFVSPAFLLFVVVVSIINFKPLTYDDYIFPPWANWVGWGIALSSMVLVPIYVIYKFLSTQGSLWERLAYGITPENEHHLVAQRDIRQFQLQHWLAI

[14] = system: Rattus norvegicus; assay: Effect on behavioural activity in ip dosed rat assessed as cocaine-induced lever response pretreated with cocaine by drug-discrimination studies; assay type: functional
[15] = system: Rattus norvegicus; assay: Effect on behavioural activity in rat assessed as cocaine-induced lever response at 5 mg/kg, ip pretreated with cocaine for 30 mins by drug-discrimination studies; assay type: functional; details: route intraperitoneal
[16] = system: Rattus norvegicus; assay: Effect on behavioural activity in rat assessed as cocaine-induced lever response at 200 mg/kg, po pretreated with cocaine for 45 mins by drug-discrimination studies; assay type: functional
[17] = system: Rattus norvegicus; assay: Effect on behavioural activity in rat assessed as cocaine-induced lever response at 2.5 mg/kg, po pretreated with cocaine for 45 mins by drug-discrimination studies; assay type: functional
[18] = system: Rattus norvegicus; assay: Effect on behavioural activity in rat assessed as cocaine-induced lever response at 25 mg/kg, ip pretreated with cocaine for 30 mins by drug-discrimination studies; assay type: functional; details: route intraperitoneal
[19] = system: Rattus norvegicus; assay: Effect on behavioural activity in rat assessed as cocaine-induced lever response at 2.5 mg/kg, ip pretreated with cocaine for 30 mins by drug-discrimination studies; assay type: functional; details: route intraperitoneal
[20] = system: Rattus norvegicus; assay: Effect on behavioural activity in rat assessed as cocaine-induced lever response at 2.5 mg/kg, po pretreated with cocaine for 90 mins by drug-discrimination studies; assay type: functional
[21] = system: Mus musculus; assay: Antidepressant activity in ip dosed mouse assessed as time to reach peak stimulation of locomotor activity; assay type: functional
[22] = system: Mus musculus; assay: Antidepressant activity in ip dosed mouse assessed as stimulation of locomotor activity relative to cocaine; assay type: functional
[23] = system: Rattus norvegicus; assay: Effect on behavioural activity in rat assessed as cocaine-induced lever response at 5 mg/kg, po pretreated with cocaine for 90 mins by drug-discrimination studies; assay type: functional
[24] = system: Rattus norvegicus; assay: Effect on behavioural activity in rat assessed as cocaine-induced lever response at 2.5 mg/kg, po pretreated with cocaine for 360 mins by drug-discrimination studies; assay type: functional
[25] = system: Rattus norvegicus; assay: Effect on behavioural activity in rat assessed as cocaine-induced lever response at 10 mg/kg, po pretreated with cocaine for 180 mins by drug-discrimination studies; assay type: functional
[26] = system: Mus musculus; assay: Antidepressant activity in ip dosed mouse assessed as duration of locomotor activity; assay type: functional
[27] = system: Rattus norvegicus; assay: Effect on behavioural activity in rat assessed as cocaine-induced lever response at 50 mg/kg, po pretreated with cocaine for 90 mins by drug-discrimination studies; assay type: functional
[28] = system: Rattus norvegicus; assay: Effect on behavioural activity in rat assessed as cocaine-induced lever response at 100 mg/kg, po pretreated with cocaine for 45 mins by drug-discrimination studies; assay type: functional
[29] = system: Rattus norvegicus; assay: Effect on behavioural activity in rat assessed as cocaine-induced lever response at 50 mg/kg, po pretreated with cocaine for 180 mins by drug-discrimination studies; assay type: functional
[30] = system: Rattus norvegicus; assay: Effect on behavioural activity in rat assessed as cocaine-induced lever response at 100 mg/kg, po pretreated with cocaine for 90 mins by drug-discrimination studies; assay type: functional
[31] = system: Rattus norvegicus; assay: Effect on behavioural activity in rat assessed as cocaine-induced lever response at 10 mg/kg, ip pretreated with cocaine for 30 mins by drug-discrimination studies; assay type: functional; details: route intraperitoneal
[32] = system: Rattus norvegicus; assay: Effect on behavioural activity in rat assessed as cocaine-induced lever response at 200 mg/kg, po pretreated with cocaine for 360 mins by drug-discrimination studies; assay type: functional
[33] = system: Rattus norvegicus; assay: Effect on behavioural activity in rat assessed as cocaine-induced lever response at 10 mg/kg, po pretreated with cocaine for 45 mins by drug-discrimination studies; assay type: functional
[34] = system: Rattus norvegicus; assay: Effect on behavioural activity in rat assessed as cocaine-induced lever response at 10 mg/kg, po pretreated with cocaine for 90 mins by drug-discrimination studies; assay type: functional
[35] = system: Rattus norvegicus; assay: Effect on behavioural activity in rat assessed as cocaine-induced lever response at 5 mg/kg, po pretreated with cocaine for 180 mins by drug-discrimination studies; assay type: functional
[36] = system: Rattus norvegicus; assay: Effect on behavioural activity in rat assessed as cocaine-induced lever response at 10 mg/kg, po pretreated with cocaine for 360 mins by drug-discrimination studies; assay type: functional
[37] = system: Rattus norvegicus; assay: Effect on behavioural activity in po dosed rat assessed as cocaine-induced lever response pretreated with cocaine by drug-discrimination studies; assay type: functional
[38] = system: Rattus norvegicus; assay: Effect on behavioural activity in rat assessed as cocaine-induced lever response at 25 mg/kg, po pretreated with cocaine for 45 mins by drug-discrimination studies; assay type: functional
[39] = system: Rattus norvegicus; assay: Effect on behavioural activity in rat assessed as cocaine-induced lever response at 25 mg/kg, po pretreated with cocaine for 360 mins by drug-discrimination studies; assay type: functional
[40] = system: Mus musculus; assay: Antidepressant activity in ip dosed mouse assessed as stimulation of locomotor activity; assay type: functional

Compound: CC(NC(C)(C)C)C(=O)c1cccc(Br)c1 (stereo not given)
- Activity [1]: 5%
- Activity [2]: 0%
- Ki [3]: > 10 µM
- Activity [4]: 14%
- Activity [5]: 0%
- Activity [6]: 0%
- Activity [7]: 0%
- Activity [8]: 34%
- Activity [9]: 7%
- Activity [10]: 0%
- Activity [11]: 51%
- Activity [12]: 100%
- Ki [13]: > 7.14 µM
- ED50 [14]: 39.6 mg/kg
- Activity [15]: 34.4%
- Activity [16]: 100%
- Activity [17]: 13%
- Activity [18]: 83.6%
- Activity [19]: 0.3%
- Activity [20]: 0%
- Time to peak locomotor stimulation [21]: 0 min
- Activity [22]: 57%
- Activity [23]: 15%
- Activity [24]: 33%
- Activity [25]: 0%
- Time [26]: 90 min
- Activity [27]: 21%
- Activity [28]: 67%
- Activity [29]: 0%
- Activity [30]: 56%
- Activity [31]: 21%
- Activity [32]: 34%
- Activity [33]: 0%
- Activity [34]: 0%
- Activity [35]: 0%
- Activity [36]: 0%
- ED50 [37]: 52.9 mg/kg
- Activity [38]: 17%
- Activity [39]: 0%
- ED50 [40]: 13.5 mg/kg
